Measurements taken from article PMC9829398 (Plant Biotechnology Journal, 2022).
“Also recorded” adds a separate entry of the source.

Key:
Ralstonia solanacearum [1] = format: in vivo, tomato; conditions: roots pretreated twice with 3 mL of 5 μM
Meloidogyne incognita = assay: Rice root-knot nematode disease, preventive root treatment; format: in vivo; conditions: roots pretreated twice with 3 mL of 5 μM, 800 pre-J2s
tobacco roots = assay: RNA-seq of tobacco roots (DEGs, GO and KEGG classification and enrichment); format: in vivo
ANJEA‐CD = assay: ANJEA-CD kinase activity (autophosphorylation); format: biochemical, Arabidopsis thaliana; conditions: 5 μM
[2] = test system: Arabidopsis Col‐0 and fer‐4 seedlings; assay: Growth of Arabidopsis seedlings (root length, shoot fresh weight); conditions: 5 μM for 3 days, vs ddH2O (mock) and lapatinib
Ralstonia solanacearum [3] = format: in vivo, tobacco; conditions: roots pretreated twice with 3 mL of 5 μM
Ralstonia solanacearum [4] = format: in vivo, tobacco; conditions: 5 μM irrigated twice two days after inoculation
FRK1 = conditions: 5 μM for 24 h, confocal microscopy
[5] = KEGG ko00040 Pentose and glucuronate interconversions
[6] = KEGG ko00052 Galactose metabolism
[7] = KEGG ko00062 Fatty acid elongation
[8] = KEGG ko00071 Fatty acid degradation
[9] = KEGG ko00073 Cutin, suberine and wax biosynthesis
[10] = KEGG ko00100 Steroid biosynthesis
[11] = KEGG ko00250 Alanine, aspartate and glutamate metabolism
[12] = KEGG ko00270 Cysteine and methionine metabolism
[13] = KEGG ko00290 Valine, leucine and isoleucine biosynthesis
[14] = KEGG ko00330 Arginine and proline metabolism
[15] = KEGG ko00350 Tyrosine metabolism
[16] = KEGG ko00360 Phenylalanine metabolism
[17] = KEGG ko00410 beta-Alanine metabolism
[18] = KEGG ko00430 Taurine and hypotaurine metabolism
[19] = KEGG ko00460 Cyanoamino acid metabolism
[20] = KEGG ko00480 Glutathione metabolism
[21] = KEGG ko00500 Starch and sucrose metabolism
[22] = KEGG ko00511 Other glycan degradation
[23] = KEGG ko00520 Amino sugar and nucleotide sugar metabolism
[24] = KEGG ko00531 Glycosaminoglycan degradation
[25] = KEGG ko00561 Glycerolipid metabolism
[26] = KEGG ko00564 Glycerophospholipid metabolism
[27] = KEGG ko00590 Arachidonic acid metabolism
[28] = KEGG ko00591 Linoleic acid metabolism
[29] = KEGG ko00592 alpha-Linolenic acid metabolism
[30] = KEGG ko00603 Glycosphingolipid biosynthesis - globo series
[31] = KEGG ko00604 Glycosphingolipid biosynthesis - ganglio series
[32] = KEGG ko00650 Butanoate metabolism
[33] = KEGG ko00730 Thiamine metabolism
[34] = KEGG ko00760 Nicotinate and nicotinamide metabolism
[35] = KEGG ko00770 Pantothenate and CoA biosynthesis
[36] = KEGG ko00904 Diterpenoid biosynthesis
[37] = KEGG ko00905 Brassinosteroid biosynthesis
[38] = KEGG ko00906 Carotenoid biosynthesis
[39] = KEGG ko00908 Zeatin biosynthesis
[40] = KEGG ko00909 Sesquiterpenoid and triterpenoid biosynthesis
[41] = KEGG ko00910 Nitrogen metabolism
[42] = KEGG ko00940 Phenylpropanoid biosynthesis
[43] = KEGG ko00941 Flavonoid biosynthesis
[44] = KEGG ko00950 Isoquinoline alkaloid biosynthesis
[45] = KEGG ko00960 Tropane, piperidine and pyridine alkaloid biosynthesis
[46] = KEGG ko00980 Metabolism of xenobiotics by cytochrome P450
[47] = KEGG ko00982 Drug metabolism - cytochrome P450
[48] = KEGG ko01040 Biosynthesis of unsaturated fatty acids
[49] = KEGG ko03320 PPAR signaling pathway
[50] = KEGG ko04010 MAPK signaling pathway
[51] = KEGG ko04011 MAPK signaling pathway - yeast
[52] = KEGG ko04020 Calcium signaling pathway
[53] = KEGG ko04022 cGMP-PKG signaling pathway
[54] = KEGG ko04075 Plant hormone signal transduction
[55] = KEGG ko04140 Regulation of autophagy
[56] = KEGG ko04211 Longevity regulating pathway
[57] = KEGG ko04212 Longevity regulating pathway - worm
[58] = KEGG ko04370 VEGF signaling pathway
[59] = KEGG ko04380 Osteoclast differentiation
[60] = KEGG ko04614 Renin-angiotensin system
[61] = KEGG ko04626 Plant-pathogen interaction
[62] = KEGG ko04650 Natural killer cell mediated cytotoxicity
[63] = KEGG ko04660 T cell receptor signaling pathway
[64] = KEGG ko04662 B cell receptor signaling pathway
[65] = KEGG ko04712 Circadian rhythm - plant
[66] = KEGG ko04720 Long-term potentiation
[67] = KEGG ko04723 Retrograde endocannabinoid signaling
[68] = KEGG ko04724 Glutamatergic synapse
[69] = KEGG ko04810 Regulation of actin cytoskeleton
[70] = KEGG ko04920 Adipocytokine signaling pathway
[71] = KEGG ko04921 Oxytocin signaling pathway
[72] = KEGG ko04922 Glucagon signaling pathway
[73] = KEGG ko04974 Protein digestion and absorption
[74] = KEGG ko04975 Fat digestion and absorption
[75] = tobacco roots, 5 μM irrigated twice, coregulated genes, vs DMSO

c1nc2nc(Nc3ccc(N4CCOCC4)cc3)nc(NC3CCCCC3)c2[nH]1 [Reversine]
Control of tomato bacterial wilt (Ralstonia solanacearum [1]): alleviated soil‐borne diseases | Control of rice root-knot nematode disease (Meloidogyne incognita): better preventive effects than staurosporine; also recorded: alleviated soil‐borne diseases | Enrichment_score (tobacco roots; [5]): 2.934 | ListHits (tobacco roots; [5]): 15 | Enrichment_score (tobacco roots; [6]): 3.3846 | ListHits (tobacco roots; [6]): 8 | Enrichment_score (tobacco roots; [7]): 4.956 | ListHits (tobacco roots; [7]): 8 | Enrichment_score (tobacco roots; [8]): 1.21 | ListHits (tobacco roots; [8]): 2 | Enrichment_score (tobacco roots; [9]): 7.653 | ListHits (tobacco roots; [9]): 15 | Enrichment_score (tobacco roots; [10]): 3.7618 | ListHits (tobacco roots; [10]): 6 | Enrichment_score (tobacco roots; [11]): 2.781 | ListHits (tobacco roots; [11]): 7 | Enrichment_score (tobacco roots; [12]): 1.037 | ListHits (tobacco roots; [12]): 5 | Enrichment_score (tobacco roots; [13]): 0.913 | ListHits (tobacco roots; [13]): 1 | Enrichment_score (tobacco roots; [14]): 1.626 | ListHits (tobacco roots; [14]): 4 | Enrichment_score (tobacco roots; [15]): 1.051 | ListHits (tobacco roots; [15]): 2 | Enrichment_score (tobacco roots; [16]): 3.252 | ListHits (tobacco roots; [16]): 6 | Enrichment_score (tobacco roots; [17]): 0.7434 | ListHits (tobacco roots; [17]): 2 | Enrichment_score (tobacco roots; [18]): 2.082 | ListHits (tobacco roots; [18]): 1 | Enrichment_score (tobacco roots; [19]): 1.927 | ListHits (tobacco roots; [19]): 5 | Enrichment_score (tobacco roots; [20]): 0.8174 | ListHits (tobacco roots; [20]): 3 | Enrichment_score (tobacco roots; [21]): 2.951 | ListHits (tobacco roots; [21]): 33 | Enrichment_score (tobacco roots; [22]): 1.531 | ListHits (tobacco roots; [22]): 1 | Enrichment_score (tobacco roots; [23]): 2.188 | ListHits (tobacco roots; [23]): 14 | Enrichment_score (tobacco roots; [24]): 1.406 | ListHits (tobacco roots; [24]): 1 | Enrichment_score (tobacco roots; [25]): 2.775 | ListHits (tobacco roots; [25]): 8 | Enrichment_score (tobacco roots; [26]): 3.221 | ListHits (tobacco roots; [26]): 13 | Enrichment_score (tobacco roots; [27]): 3.154 | ListHits (tobacco roots; [27]): 2 | Enrichment_score (tobacco roots; [28]): 6.195 | ListHits (tobacco roots; [28]): 5 | Enrichment_score (tobacco roots; [29]): 5.4777 | ListHits (tobacco roots; [29]): 12 | Enrichment_score (tobacco roots; [30]): 2.739 | ListHits (tobacco roots; [30]): 1 | Enrichment_score (tobacco roots; [31]): 5.782 | ListHits (tobacco roots; [31]): 1 | Enrichment_score (tobacco roots; [32]): 2.041 | ListHits (tobacco roots; [32]): 2 | Enrichment_score (tobacco roots; [33]): 1.859 | ListHits (tobacco roots; [33]): 1 | Enrichment_score (tobacco roots; [34]): 2.168 | ListHits (tobacco roots; [34]): 2 | Enrichment_score (tobacco roots; [35]): 0.8531 | ListHits (tobacco roots; [35]): 1 | Enrichment_score (tobacco roots; [36]): 1.837 | ListHits (tobacco roots; [36]): 3 | Enrichment_score (tobacco roots; [37]): 1.735 | ListHits (tobacco roots; [37]): 1 | Enrichment_score (tobacco roots; [38]): 3.294 | ListHits (tobacco roots; [38]): 5 | Enrichment_score (tobacco roots; [39]): 0.9637 | ListHits (tobacco roots; [39]): 2 | Enrichment_score (tobacco roots; [40]): 3.186 | ListHits (tobacco roots; [40]): 3 | Enrichment_score (tobacco roots; [41]): 1.837 | ListHits (tobacco roots; [41]): 3 | Enrichment_score (tobacco roots; [42]): 6.155 | ListHits (tobacco roots; [42]): 55 | Enrichment_score (tobacco roots; [43]): 0.9548 | ListHits (tobacco roots; [43]): 2 | Enrichment_score (tobacco roots; [44]): 1.706 | ListHits (tobacco roots; [44]): 2 | Enrichment_score (tobacco roots; [45]): 1.652 | ListHits (tobacco roots; [45]): 2 | Enrichment_score (tobacco roots; [46]): 1.323 | ListHits (tobacco roots; [46]): 3 | Enrichment_score (tobacco roots; [47]): 1.679 | ListHits (tobacco roots; [47]): 4 | Enrichment_score (tobacco roots; [48]): 1.369 | ListHits (tobacco roots; [48]): 2 | Enrichment_score (tobacco roots; KEGG ko02010 ABC transporters): 2.788 | ListHits (tobacco roots; KEGG ko02010 ABC transporters): 3 | Enrichment_score (tobacco roots; [49]): 1.1072 | ListHits (tobacco roots; [49]): 1 | Enrichment_score (tobacco roots; [50]): 0.9727 | ListHits (tobacco roots; [50]): 2 | Enrichment_score (tobacco roots; [51]): 1.665 | ListHits (tobacco roots; [51]): 4 | Enrichment_score (tobacco roots; [52]): 0.9376 | ListHits (tobacco roots; [52]): 2 | Enrichment_score (tobacco roots; [53]): 0.7381 | ListHits (tobacco roots; [53]): 2 | Enrichment_score (tobacco roots; [54]): 1.411 | ListHits (tobacco roots; [54]): 18 | Enrichment_score (tobacco roots; [55]): 0.6505 | ListHits (tobacco roots; [55]): 1 | Enrichment_score (tobacco roots; KEGG ko04146 Peroxisome): 1.786 | ListHits (tobacco roots; KEGG ko04146 Peroxisome): 7 | Enrichment_score (tobacco roots; [56]): 1.229 | ListHits (tobacco roots; [56]): 3 | Enrichment_score (tobacco roots; [57]): 1.436 | ListHits (tobacco roots; [57]): 4 | Enrichment_score (tobacco roots; KEGG ko04360 Axon guidance): 1.183 | ListHits (tobacco roots; KEGG ko04360 Axon guidance): 2 | Enrichment_score (tobacco roots; [58]): 1.8259 | ListHits (tobacco roots; [58]): 2 | Enrichment_score (tobacco roots; [59]): 1.8259 | ListHits (tobacco roots; [59]): 2 | Enrichment_score (tobacco roots; [60]): 7.434 | ListHits (tobacco roots; [60]): 2 | Enrichment_score (tobacco roots; [61]): 1.449 | ListHits (tobacco roots; [61]): 12 | Enrichment_score (tobacco roots; [62]): 1.9637 | ListHits (tobacco roots; [62]): 2 | Enrichment_score (tobacco roots; [63]): 2.365 | ListHits (tobacco roots; [63]): 2 | Enrichment_score (tobacco roots; [64]): 1.794 | ListHits (tobacco roots; [64]): 2 | Enrichment_score (tobacco roots; [65]): 1.03 | ListHits (tobacco roots; [65]): 2 | Enrichment_score (tobacco roots; [66]): 1.352 | ListHits (tobacco roots; [66]): 2 | Enrichment_score (tobacco roots; [67]): 1.239 | ListHits (tobacco roots; [67]): 1 | Enrichment_score (tobacco roots; [68]): 2.42 | ListHits (tobacco roots; [68]): 4 | Enrichment_score (tobacco roots; KEGG ko04727 GABAergic synapse): 1.466 | ListHits (tobacco roots; KEGG ko04727 GABAergic synapse): 2 | Enrichment_score (tobacco roots; [69]): 1.14 | ListHits (tobacco roots; [69]): 3 | Enrichment_score (tobacco roots; [70]): 2.775 | ListHits (tobacco roots; [70]): 4 | Enrichment_score (tobacco roots; [71]): 0.8531 | ListHits (tobacco roots; [71]): 2 | Enrichment_score (tobacco roots; [72]): 0.5913 | ListHits (tobacco roots; [72]): 2 | Enrichment_score (tobacco roots; KEGG ko04924 Renin secretion): 1.859 | ListHits (tobacco roots; KEGG ko04924 Renin secretion): 2 | Enrichment_score (tobacco roots; [73]): 6.938 | ListHits (tobacco roots; [73]): 2 | Enrichment_score (tobacco roots; [74]): 4.337 | ListHits (tobacco roots; [74]): 1 | Enrichment_score (tobacco roots; KEGG ko04976 Bile secretion): 2.838 | ListHits (tobacco roots; KEGG ko04976 Bile secretion): 3 | Expression levels of growth-related genes in tobacco roots (tobacco roots; RNA-seq, GO growth, vs DMSO): differentially elevated the expression levels of most growth‐related genes | Expression levels of RBOHs, MYB44, TGA2, WRKY19, EFR, FLS2, PR1 and PDF1.4 in tobacco roots (tobacco roots; RNA-seq, vs DMSO): significantly increased the expression levels | Antioxidant genes (GO antioxidant activity) up-regulated (tobacco roots; [75]): 60 of 61 | Immune genes (GO immune system process) up-regulated (tobacco roots; [75]): 70 of 82 | Environmental adaptation-related genes (KEGG) up-regulated (tobacco roots; tobacco roots, coregulated genes, vs DMSO): 22 of 29 | Inhibition rate of ANJEA-CD kinase activity (ANJEA‐CD): lower than 55% | Growth of roots and shoots of Arabidopsis Col-0 seedlings [2]: did not affect the growth of roots and shoots | Control of tobacco bacterial wilt (Ralstonia solanacearum [3]): alleviated tobacco bacterial wilt; also recorded: alleviated soil‐borne diseases | Effect on established tobacco bacterial wilt (Ralstonia solanacearum [4]): could not completely prevent the occurrence of the diseases or cure already diseased plants | Expression of FRK1 in roots (FRK1): did not affect the expression levels
